US20260206761A1, “HETEROARYL-TRIAZOLE COMPOUNDS AS PESTICIDES” (Bayer Aktiengesellschaft, priority 2019, published 2026)

Key:
Type in all cases: in vivo
[1] = tested on: adult engorged female ticks (Rhipicephalus microplus); experiment: Rhipicephalus (Boophilus) microplus injection test; details: 168 h, egg deposition after 7 days, read-out: activity (efficacy: infertile eggs); for pest or weed control at 4 pg: application rate 4 pg/animal; for pest or weed control at 0.02 mg: application rate 20 μg/animal
In short: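 Abdominal injection, 1 μL compound/DMSO, n=5 engorged adult females; climate-chamber incubation. Readout d7: fertile egg laying; doubtful eggs held to hatch (~42 d). % efficacy = infertile eggs (100% all infertile).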

[2] = tested on: green peach aphid (Myzus persicae); experiment: Myzus persicae oral test; details: 120 h, application rate 4 ppm, after 5 days
In short: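 Readout: % mortality at day 5, where 100% = all aphids dead and 0% = none dead. Feeding via parafilm membrane over compound in IPL41 medium (33%+15% sugar); mixed-age population. Stock in acetone (1:100 w/w), water-diluted.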

[3] = tested on: Culex quinquefasciatus strain P00; experiment: Culex quinquefasciatus test (CULXFA surface treatment & contact assay); details: 24 hours after contact, read-out: efficacy (mortality); for mortality at 4 mg/m2: surface concentration 4 mg/m^2, exposure 30 minutes; for mortality at 20 mg/m2: surface concentration 20 mg/m^2, exposure 30 minutes
In short: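 Compound in acetone (2 mg/ml) with 2000 ppm rapeseed oil methyl ester, dried onto glazed tile. Adult mosquitoes exposed to the treated surface for 30 min. Percent mortality scored 24 h after contact.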

[4] = tested on: Musca domestica strain WHO-N; experiment: Musca domestica test (MUSCDO surface treatment & contact assay); details: 24 hours after contact, read-out: efficacy (mortality); for mortality at 20 mg/m2: surface concentration 20 mg/m^2, exposure 30 minutes; for mortality at 4 mg/m2: surface concentration 4 mg/m^2, exposure 30 minutes
In short: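 Compound dissolved at 2 mg/ml in acetone with 2000 ppm rapeseed oil methyl ester and pipetted onto a glazed tile. After the acetone evaporated, adult WHO-N flies were exposed to the dried surface for 30 min, with % mortality scored 24 h after contact.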

[5] = tested on: adult brown dog ticks (Rhipicephalus sanguineus); experiment: Rhipicephalus sanguineus in-vitro contact test, adult brown dog ticks; details: after 48 hours, read-out: activity (efficacy: ticks dead or moribund); for pest or weed control at 100 g/ha: application rate 1 pg/cm^2 (=100 g/ha); for pest or weed control at 5 µg/cm2, 500 g/ha: application rate 5 μg/cm^2 (=500 g/ha)
In short: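 Read-out: % efficacy as dead or moribund ticks, judged 48 h after exposure by failure to climb away from a 45-50° C heating plate within 5 min. Tubes were coated with acetone solution (900 ppm = 5 μg/cm^2 surface dose) and held 5-10 adults each at room temperature.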

[6] = tested on: Anopheles funestus strain FUMOZ-R; experiment: Anopheles funestus test (ANPHFU surface treatment & contact assay); details: 24 hours after contact, read-out: efficacy (mortality); for mortality at 4 mg/m2: surface concentration 4 mg/m^2, exposure 30 minutes; for mortality at 20 mg/m2: surface concentration 20 mg/m^2, exposure 30 minutes
In short: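 Compound dissolved in acetone at 2 mg/ml with 2000 ppm RME, pipetted onto glazed tile; acetone evaporated. Adult FUMOZ-R mosquitoes exposed to dried surface for 30 min. Percent mortality scored 24 h after contact.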

Structure (SMILES): C[C@H](NC(=O)c1cc(Cl)cc([S+]([O-])C(F)F)c1)c1ncnn1-c1ccc(C#N)cn1 (stereo partly drawn) [II-18, 3-chloro-N-{(1S)-1-[1-(5-cyanopyridin-2-yl)-1H-1,2,4-triazol-5-yl]ethyl}-5-[(difluoro-methyl)sulfinyl]benzamide]
- pest or weed control at 4 pg [1]: 100%
- pest or weed control at 0.02 mg [1]: 100%
- mortality at 4 ppm [2]: 100%
- mortality at 4 mg/m2 [3]: 80 to 100%
- mortality at 20 mg/m2 [3]: 80 to 100%
- mortality at 20 mg/m2 [4]: 80 to 100%

Structure (SMILES): C[C@H](NC(=O)c1cc(C2CC2)cc(C(F)(F)F)c1)c1ncnn1-c1ccc(Cl)cn1 [II-27]
- pest or weed control at 4 pg [1]: 100%
- pest or weed control at 0.02 mg [1]: 100%
- pest or weed control at 100 g/ha [5]: 100%
- pest or weed control at 5 µg/cm2, 500 g/ha [5]: 100%
- mortality at 4 mg/m2 [3]: 80 to 100%
- mortality at 20 mg/m2 [3]: 80 to 100%
- mortality at 4 mg/m2 [6]: 80 to 100%
- mortality at 4 mg/m2 [4]: 80 to 100%
- mortality at 20 mg/m2 [4]: 80 to 100%

Structure (SMILES): CSc1cc(C#N)cc(C(=O)N[C@@H](C)c2ncnn2-c2ccc(C#N)cn2)c1 [II-3]
- pest or weed control at 4 pg [1]: 100%
- pest or weed control at 0.02 mg [1]: 100%
- mortality at 4 ppm [2]: 100%
- mortality at 4 mg/m2 [3]: 80 to 100%
- mortality at 20 mg/m2 [3]: 80 to 100%
- mortality at 20 mg/m2 [6]: 80 to 100%

Structure (SMILES): Cc1nc([C@H](C)NC(=O)c2cc(C(F)(F)F)cc(C3(C#N)CC3)c2)n(-c2ccc(Cl)cn2)n1 [II-50]
- pest or weed control at 4 pg [1]: 100%
- pest or weed control at 0.02 mg [1]: 100%
- pest or weed control at 100 g/ha [5]: 100%
- pest or weed control at 5 µg/cm2, 500 g/ha [5]: 100%
- mortality at 4 ppm [2]: 100%
- mortality at 20 mg/m2 [4]: 80 to 100%

Structure (SMILES): Cc1nc([C@H](C)NC(=O)c2cc(Cl)nn2C)n(-c2ccc(C#N)cn2)n1 [II-11]
- pest or weed control at 4 pg [1]: 100%
- pest or weed control at 0.02 mg [1]: 100%
- pest or weed control at 100 g/ha [5]: 80%
- pest or weed control at 5 µg/cm2, 500 g/ha [5]: 80%
- mortality at 4 mg/m2 [3]: 80 to 100%
- mortality at 4 mg/m2 [6]: 80 to 100%
- mortality at 20 mg/m2 [6]: 80 to 100%
- mortality at 4 mg/m2 [4]: 80 to 100%

Structure (SMILES): C[C@H](NC(=O)c1cc(Cl)cc(S(=O)(=O)C(F)(F)F)c1)c1ncnn1-c1ncc(OC(F)F)cn1 [II-43]
- pest or weed control at 4 pg [1]: 100%
- pest or weed control at 0.02 mg [1]: 100%
- mortality at 4 ppm [2]: 100%
- mortality at 4 mg/m2 [3]: 80 to 100%

Structure (SMILES): C[C@H](NC(=O)c1cc(C(F)(F)F)cc(S(=O)(=O)C2CC2)c1)c1ncnn1-c1ccc(C#N)cn1 [II-32]
- pest or weed control at 4 pg [1]: 100%
- pest or weed control at 0.02 mg [1]: 100%
- pest or weed control at 100 g/ha [5]: 100%
- pest or weed control at 5 µg/cm2, 500 g/ha [5]: 100%
- mortality at 4 ppm [2]: 100%
- mortality at 4 mg/m2 [3]: 80 to 100%
- mortality at 20 mg/m2 [3]: 80 to 100%
- mortality at 4 mg/m2 [4]: 80 to 100%
- mortality at 20 mg/m2 [4]: 80 to 100%

Structure (SMILES): C[C@H](NC(=O)c1cc(C2CC2)cc(C(F)(F)F)c1)c1ncnn1-c1ccc(C#N)cn1 [II-26]
- pest or weed control at 4 pg [1]: 100%
- pest or weed control at 0.02 mg [1]: 100%
- pest or weed control at 100 g/ha [5]: 100%
- pest or weed control at 5 µg/cm2, 500 g/ha [5]: 100%
- mortality at 4 ppm [2]: 100%
- mortality at 4 mg/m2 [4]: 80 to 100%
- mortality at 20 mg/m2 [4]: 80 to 100%

Structure (SMILES): Cc1nc([C@H](C)NC(=O)c2cc(Cl)cc(S(=O)(=O)C(F)F)c2)n(-c2ccc(C#N)cn2)n1 [II-35]
- pest or weed control at 4 pg [1]: 100%
- pest or weed control at 0.02 mg [1]: 100%
- pest or weed control at 5 µg/cm2, 500 g/ha [5]: 80%
- mortality at 4 ppm [2]: 100%
- mortality at 4 mg/m2 [4]: 80 to 100%
- mortality at 20 mg/m2 [4]: 80 to 100%

Structure (SMILES): Cc1nc([C@H](C)NC(=O)c2cc(Cl)cc(S(=O)(=O)C(F)F)c2)n(-c2ccc(Cl)cn2)n1 [II-36]
- pest or weed control at 4 pg [1]: 100%
- pest or weed control at 0.02 mg [1]: 100%
- pest or weed control at 5 µg/cm2, 500 g/ha [5]: 80%
- mortality at 4 ppm [2]: 100%
- mortality at 4 mg/m2 [4]: 80 to 100%

Structure (SMILES): C[C@H](NC(=O)c1cc(C#N)cc(S(C)(=O)=O)c1)c1ncnn1-c1ccc(Cl)cn1 [II-29]
- pest or weed control at 4 pg [1]: 100%
- pest or weed control at 0.02 mg [1]: 100%
- pest or weed control at 100 g/ha [5]: 80%
- pest or weed control at 5 µg/cm2, 500 g/ha [5]: 100%
- mortality at 4 ppm [2]: 100%
- mortality at 4 mg/m2 [3]: 80 to 100%

Structure (SMILES): Cc1nc([C@H](C)NC(=O)c2cc(C(F)(F)F)n(C)n2)n(-c2ccc(C#N)cn2)n1 [II-7]
- pest or weed control at 4 pg [1]: 100%
- pest or weed control at 0.02 mg [1]: 100%
- mortality at 20 mg/m2 [3]: 80 to 100%
- mortality at 4 mg/m2 [6]: 80 to 100%
- mortality at 20 mg/m2 [4]: 80 to 100%

Structure (SMILES): Cc1nc([C@H](C)NC(=O)c2cc(Cl)cc(C3(C#N)CC3)c2)n(-c2ccc(C#N)cn2)n1 [II-38]
- pest or weed control at 4 pg [1]: 100%
- pest or weed control at 0.02 mg [1]: 100%
- pest or weed control at 100 g/ha [5]: 100%
- pest or weed control at 5 µg/cm2, 500 g/ha [5]: 100%
- mortality at 4 ppm [2]: 100%
- mortality at 4 mg/m2 [4]: 80 to 100%
- mortality at 20 mg/m2 [4]: 80 to 100%

Structure (SMILES): C[C@H](NC(=O)c1cc(Cl)cc(S(=O)(=O)C(F)F)c1)c1ncnn1-c1ccc(C#N)cn1 [II-17]
- pest or weed control at 4 pg [1]: 100%
- pest or weed control at 0.02 mg [1]: 100%
- mortality at 4 ppm [2]: 100%
- mortality at 4 mg/m2 [3]: 80 to 100%
- mortality at 20 mg/m2 [3]: 80 to 100%
- mortality at 4 mg/m2 [6]: 80 to 100%

Structure (SMILES): C[C@H](NC(=O)c1cc(Cl)cc(S(=O)(=O)C2CC2)c1)c1nc(C2CC2)nn1-c1ncc(Cl)cn1 [I-25]
- pest or weed control at 4 pg [1]: 100%
- pest or weed control at 0.02 mg [1]: 100%
- mortality at 4 ppm [2]: 100%
- mortality at 4 mg/m2 [3]: 80 to 100%
- mortality at 20 mg/m2 [3]: 80 to 100%
- mortality at 4 mg/m2 [4]: 80 to 100%
- mortality at 20 mg/m2 [4]: 80 to 100%

Structure (SMILES): CC(C)c1nc([C@H](C)NC(=O)c2cc(OC(F)(F)F)cc(C3CC3)c2)n(-c2ccc(C#N)cn2)n1 [I-23]
- pest or weed control at 4 pg [1]: 100%
- pest or weed control at 0.02 mg [1]: 100%
- pest or weed control at 100 g/ha [5]: 100%
- pest or weed control at 5 µg/cm2, 500 g/ha [5]: 100%
- mortality at 4 mg/m2 [6]: 80 to 100%
- mortality at 20 mg/m2 [6]: 80 to 100%
- mortality at 20 mg/m2 [4]: 80 to 100%

Structure (SMILES): C[C@H](NC(=O)c1cc(C(F)(F)F)cc(S(C)(=O)=O)c1)c1ncnn1-c1ccc(Cl)cn1 [II-16]
- pest or weed control at 4 pg [1]: 100%
- pest or weed control at 0.02 mg [1]: 100%
- mortality at 4 ppm [2]: 100%
- mortality at 4 mg/m2 [3]: 80 to 100%
- mortality at 4 mg/m2 [6]: 80 to 100%
